Source: patent US7439040B2, “Protease regulator screening assay” (Novartis Vaccines and Diagnostics, Inc., priority 1996, dated 2008)
Several values for one entry are separate records, joined by “and”; a condition that tells them apart may be missing. Equal entries are not always repeated.

What was measured:
Assay type in all cases: biochemical
[1] = biological target: T1, HCV protease (Hepatitis C virus genotype 1a, UniProt P26664); test: HCV protease inhibitor screening assay using NS5A/5B cleavage site (pro A-NS5 substrate, anti-FLAG/HRP OD readout)
T1 construct: Peptide 4A, a co-factor of the NS3 HCV protease; made in house
T1 sequence (P26664 1027-1657): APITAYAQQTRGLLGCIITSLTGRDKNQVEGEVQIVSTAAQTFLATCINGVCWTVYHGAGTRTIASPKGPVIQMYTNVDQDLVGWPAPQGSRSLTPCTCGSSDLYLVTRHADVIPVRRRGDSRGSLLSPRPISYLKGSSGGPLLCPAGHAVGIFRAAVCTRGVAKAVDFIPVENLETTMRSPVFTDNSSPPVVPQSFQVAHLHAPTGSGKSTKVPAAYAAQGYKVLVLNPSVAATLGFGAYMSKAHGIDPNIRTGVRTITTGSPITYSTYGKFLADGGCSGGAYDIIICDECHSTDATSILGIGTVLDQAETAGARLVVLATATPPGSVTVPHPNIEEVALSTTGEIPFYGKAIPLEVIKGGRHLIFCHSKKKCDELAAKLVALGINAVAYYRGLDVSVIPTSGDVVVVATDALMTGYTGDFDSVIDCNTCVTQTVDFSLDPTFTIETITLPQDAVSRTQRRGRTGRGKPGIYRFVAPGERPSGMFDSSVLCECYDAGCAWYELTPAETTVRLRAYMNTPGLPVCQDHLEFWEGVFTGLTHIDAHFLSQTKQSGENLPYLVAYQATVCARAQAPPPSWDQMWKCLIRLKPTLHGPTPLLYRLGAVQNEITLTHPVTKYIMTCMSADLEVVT
Text: The HCV Protease Inhibitor Screening Assay Using NS5A/5B as Cleavage Site Expression Construct and its Encoded Polypeptide
A fragment encoding HCV NS5 peptide protease target site was inserted in frame into the polylinker region of pEZZ18 so that it is connected at the C-terminal region of Protein A. The NS5 peptide protease target site includes the NS5A and NS5B cleavage site, i.e., amino acids 2420 and 2421, 7 amino acids at the N-terminal side of the cleavage site, and 8 amino acids at the C-terminal side of the cleavage site.
Another sequence fragment encoding the FLAG tag was inserted in frame at the C-terminal end of the NS5 peptide protease target site. The sequence fragment encodes three FLAG tags alternately spaced with two 4-Glycine spacers.
Microwell plates containing 96 wells were prepared by coating the wells with IgG. Then the plates were dried. The purified protein NS5 was incubated with the dry plates for 1 hour at 37° C. to allow binding of the Protein A region of the protein to the IgG in the microwells.
Protease was prepared by elution from a nickel column. Various concentrations of HCV protease were prepared. The protease was incubated with and without a known protease inhibitor, DCIC (di-chloro-iso-coumarin). The incubation was for 1 hour at room temperature. Subsequently the protease was transferred to the coated plates. […]
Diluted monoclonal anti-FLAG mouse antibodies (available from Kodak) were added to the HCV protease treated plates and incubated with the plates for 1 hour at 37° C. The plates were subsequently washed and incubated with affinity purified goat anti-mouse-HRP (horse radish peroxidase) conjugates for 1 hour at 37° C. Then the plates were washed, and incubated with a developer such as o-phenylenediamine dihydrochloride (OPD). The optical density (OD) was determined at 492 and 620 nm settings.

[2] = biological target: T2, NS3 HCV protease (Hepatitis C virus genotype 1a, UniProt P26664); test: HCV protease inhibitor screening assay using NS4B/5A cleavage site with co-factor peptide 4A; conditions: DCIC 1 μM, duplicates
T2 construct: Peptide 4A, a co-factor of the NS3 HCV protease; made in house
T2 sequence (P26664 1027-1657): as above
Method: The HCV Protease Inhibitor Screening Assay Using NS4B/5A Cleavage Site
Plate: Human IgG coated on HB COSTAR plate, 200 ng/well
The protease: Ni-13 (F21) diluted 1:300 in the enzyme stock buffer
The protease inhibitor: diluted to 1 mM in the enzyme stock buffer
A substrate polypeptide was prepared having an anchor region (protein A), a linker, two protease target sites of NS4B/5A, another linker, and a FLAG epitope tag. The target polypeptide was expressed in sufficient quantities to conduct the assay.
[…] The plate was washed five times with wash buffer. The inhibitor, if any, was pre-incubated (diluted to 1 uM) with HCV protease, NS4A (0.2 uM) for one hour at room temperature. Peptide 4A, a co-factor of the NS3 HCV protease was added in different concentrations to all wells containing the protease mixture (20X concentration is 4 μM). The above mixture was transferred to the plate coated with IgG-4B/5A complex and incubated overnight at room temperature (about 20° C. −25° C.). The final concentration of the NS4A in each well was 4 μM. The plate was washed five times with wash buffer. Mouse anti-FLAG monoclonal antibody in the amount of 200 μl (1:200d from stock solution) was added to the designated wells and incubated one hour at 37° C. The plate was washed five times with wash buffer. Affinity purified goat anti-mouse (H+L)-HRP (Fab′)2 conjugate (1:5000d) in the amount of 200 μl was added to all the reaction wells except the blank well and incubated one hour at 37° C. The plate was washed five times with wash buffer. Then the plate was developed with OPD substrate for 30 minutes at room temperature. The plate was read with a microtiter plate reader at 490/620 nm.

[3] = biological target: T1, HCV protease; test: NS5A/5B as substrate to screen HCV protease inhibitor candidates; conditions: control setup, pro A-NS5 substrate
Method: The substrate polypeptide, (10 μg/well) in 200 μl was added to a human IgG coated plate and incubated for one hour. The plate was washed five times with wash buffer. The inhibitor, if any, was pre-incubated (diluted to 1 uM) with HCV protease, NS4A (0.2 uM) for one hour at room temperature. Peptide 4A, a co-factor of the NS3 HCV protease was added in different concentrations to all wells containing the protease mixture (20X concentration is 4 μM). […] The final concentration of the NS4A in each well was 4 μM. The plate was washed five times with wash buffer. Mouse anti-FLAG monoclonal antibody in the amount of 200 μl (1:200d from stock solution) was added to the designated wells and incubated one hour at 37° C. The plate was washed five times with wash buffer. Affinity purified goat anti-mouse (H+L)-HRP (Fab′)2 conjugate (1:5000d) in the amount of 200 μl was added to all the reaction wells except the blank well and incubated one hour at 37° C. The plate was washed five times with wash buffer. Then the plate was developed with OPD substrate for 30 minutes at room temperature. The plate was read with a microtiter plate reader at 490/620 nm.
Using NS5A/5B as Substrate to Screen HCV Protease Inhibitor Candidates
A target polypeptide was prepared having an anchor region, a linker region, a protease target site of HCV NS5A/5B, another linker region, and a FLAG epitope tag region. […]

[4] = biological target: T1, HCV protease; test: Short incubation time, NS5A/5B substrate HCV protease inhibitor screen; conditions: control setup; duplicates; listed as control 4
Method: Using a Short Incubation Time and NS5A/5B as a Substrate to Screen HCV Protease Inhibitors
A target polypeptide was prepared having an anchor region (protein A) molecule, a linker, a protease target site of HCV NS5A/5B, another linker, and a FLAG epitope tag region. The target polypeptide was expressed in sufficient quantities to conduct the assay.
The inhibitor was pre-incubated (diluted to 1 μM) with HCV protease (0.2 μM) for 1 hour at room temperature. A solution of NS5A/5B substrate (20 μg/well) was added to the pre-incubated protease and protease inhibitor mixture, and the total mixture was incubated for 15 minutes. The mixture was transferred to a human IgG coated plate and incubated for 1 hour at 37° C. The plate was washed five times with wash buffer.
Two hundred microliter of mouse anti-FLAG monoclonal antibody (1:200d from stock solution) was added to the designated wells and incubated for 1 hour at 37° C. The plate was washed five times with wash buffer. Affinity purified goat anti-mouse (H+L)-HRPO (Fab′)2 conjugate (1:5000d) in the amount of 200 μl was added to all the reaction wells except the blank well and incubate 1 hour at 37° C. The plate was washed five times with wash buffer. The plate was developed with OPD substrate for 30 minutes at room temperature. The plate was read with a microtiter plate reader at 490/620 nm.

[5] = protease, substrate and inhibitor preincubated overnight, pools 1:100 D

O=c1oc(Cl)c(Cl)c2ccccc12 [DCIC, di-chloro-iso-coumarin]
OD ([1]; preincubation of protease, substrate and inhibitor overnight, pro A-NS5 10 μg/ml, protease 1:100 D): 1.578 | OD ([1]; preincubation of protease, substrate and inhibitor overnight, pro A-NS5 10 μg/ml, protease 1:200 D): 1.458 | OD ([1]; preincubation of protease, substrate and inhibitor overnight, pro A-NS5 10 μg/ml, protease 1:500 D): 1.083 | OD, Exp. 1 [1, 5]: 1.235 | OD, Exp. 2 [1, 5]: 0.768 | OD ([1]; substrate and protease incubated for 2 hours, pro A-NS5 10 μg/ml, protease 1:100 D): 1.137 | OD ([1]; substrate and protease incubated for 2 hours, pro A-NS5 10 μg/ml, protease 1:200 D): 1.235 | OD ([1]; substrate and protease incubated for 2 hours, pro A-NS5 10 μg/ml, protease 1:500 D): 0.503 | OD ([1]; substrate and protease incubated for 2 hours, proA-NS5 2 μg/ml, protease 1:100 D): 0.627 | OD ([1]; substrate and protease incubated for 2 hours, proA-NS5 2 μg/ml, protease 1:200 D): 0.631 | OD ([1]; substrate and protease incubated for 2 hours, proA-NS5 2 μg/ml, protease 1:500 D): 0.545 | OD ([1]; substrate and protease incubated overnight, pro A-NS5 10 μg/ml, protease 1:100 D): 0.899 | OD ([1]; substrate and protease incubated overnight, pro A-NS5 10 μg/ml, protease 1:200 D): 0.998 | OD ([1]; substrate and protease incubated overnight, pro A-NS5 10 μg/ml, protease 1:500 D): 0.887 | OD ([1]; substrate and protease incubated overnight, proA-NS5 2 μg/ml, protease 1:100 D): 0.449 | OD ([1]; substrate and protease incubated overnight, proA-NS5 2 μg/ml, protease 1:200 D): 0.467 | OD ([1]; substrate and protease incubated overnight, proA-NS5 2 μg/ml, protease 1:500 D): 0.328 | OD of the reaction product ([2]; substrate 4B/5A 5 μg/well, 10X peptide 4A): 1.435 and 1.328 | OD of the reaction product ([2]; substrate 4B/5A 5 μg/well, 20X peptide 4A): 1.374 and 1.373 | OD of the reaction product ([2]; substrate 4B/5A 5 μg/well, no peptide 4A): 1.400 and 1.491 | OD of the reaction product ([2]; substrate 4B/5A 10 μg/well, 10X peptide 4A): 1.729 and 1.715 | OD of the reaction product ([2]; substrate 4B/5A 10 μg/well, 20X peptide 4A): 1.584 and 1.690 | OD of the reaction product ([2]; substrate 4B/5A 10 μg/well, no peptide 4A): 1.769 and 1.686 | OD w/ DMSO 1 μl ([3]; with DMSO 1 μl): 2.596 | OD w/o DMSO ([3]; without DMSO): 2.915 | OD, 15 minutes preincubation [4]: 1.563 and 1.590 | OD, 1 hour preincubation [4]: 1.991 and 2.152
